# Laboratory results as given in patent US7041690B2, “Inhibitors of HCV NS5B polymerase” (Pharmacia & Upjohn Company, LLC, priority 2002, dated 2006).
# pIC50: −log10 of the molar value.
# Biological target: HCV NS5b RNA dependent RNA polymerase (Hepatitis C virus genotype 1a, UniProt P27958)
# Experiment: HCV NS5b RNA dependent RNA polymerase inhibition (scintillation proximity assay)
# Format: biochemical
# Details: not given
# Description: Compounds of the present invention are evaluated for inhibition of HCV NS5b RNA dependent RNA polymerase activity in assays comprised of a suitable buffer (e.g. 20 mM Tris-HCl pH 7.6), primed or unprimed RNA templates, GTP, ATP, CTP, and UTP, MnCl2 or MgCl2, and reducing agent such as 10 mM dithiothreitol or 2-mercaptoethanol. The assay buffer may contain salts such as ammonium acetate, KCl, or NaCl, and nonionic or zwitterionic detergents such as Tween or CHAPS. The incorporation of nucleotides into the complementary RNA strand may be monitored by the incorporation of radiolabeled NTP (e.g. ^3H labeled GTP). Suitable RNA templates for de novo initiation in the presence of 20–50 μM GTP or ATP are the homopolymers poly rC and poly rU, respectively. Heteropolymer RNA templates with 1–3 cytidine (C) bases or 1–3 uridine (U) bases at the 3′ terminus of the template may also be used for de novo initiation. Primed RNA templates such as poly rC primed with oligo rG or oligo dG, and poly rA primed with oligo rU may also be used to detect polymerase activity. The primers may be any length greater than 10 bases. A biotin residue may be added to the 5′ end of the template or the 5′ end of the primer to capture the template and the newly synthesized, complementary strand on avidin coated spheres. One embodiment of this technology consists of a mixture of NS5b polymerase, a poly rC RNA template primed with 5′ biotinylated oligo rG, 20 mM Tris HCl pH 7.6, 100 mM ammonium acetate, 10 mM dithiothreitol, 2 mM CHAPS, 1 mM MgCl2, and 150–200 nM ^3H labeled GTP. Test compounds (inhibitors) may be incorporated in the reaction mixture with up to 10% DMSO. The reaction is run for various times (1–180 minutes) at 22–37° C., and stopped by the addition of 10–140 mM EDTA. Scintillation Proximity Assay avidin-coated beads (Amersham Pharmacia Biotech) are added to capture the ds RNA product; or the reaction mixtures may be transferred to avidin coated Flash Plates (Perkin Elmer Life Sciences). The incorporation of radiolabeled GTP into the complementary strand is measured in 96, 384, or 1536 well plates in scintillation counters such as the Wallac Microbeta and Packard TopCount.
# Chain of HCV NS5b RNA dependent RNA polymerase (P27958 2421-3011): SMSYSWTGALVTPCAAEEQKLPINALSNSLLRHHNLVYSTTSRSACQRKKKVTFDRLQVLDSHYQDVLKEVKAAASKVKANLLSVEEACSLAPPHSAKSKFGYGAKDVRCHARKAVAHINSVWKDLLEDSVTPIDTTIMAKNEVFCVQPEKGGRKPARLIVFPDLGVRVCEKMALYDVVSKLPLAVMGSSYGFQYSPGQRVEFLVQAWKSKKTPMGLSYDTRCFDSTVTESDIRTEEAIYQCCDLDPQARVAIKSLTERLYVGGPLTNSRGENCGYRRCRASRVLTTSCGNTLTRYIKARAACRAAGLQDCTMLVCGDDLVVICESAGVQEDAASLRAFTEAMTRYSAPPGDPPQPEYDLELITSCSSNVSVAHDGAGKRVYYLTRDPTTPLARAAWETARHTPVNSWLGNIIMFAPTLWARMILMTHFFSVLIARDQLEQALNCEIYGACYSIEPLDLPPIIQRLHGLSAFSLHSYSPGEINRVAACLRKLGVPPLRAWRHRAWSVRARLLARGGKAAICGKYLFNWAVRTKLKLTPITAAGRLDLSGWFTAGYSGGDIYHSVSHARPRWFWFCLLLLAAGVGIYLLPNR
row,SMILES,pIC50
1,Cc1ccccc1-c1ccc(/C=C(\NC(=O)c2ccccc2)C(=O)O)o1 [Compound 2],> 5.00

# Same assay, conditions: concentration for 50% inhibition, class symbols; read-out: NS5B Inhibitory Activity
row,SMILES,pIC50
1,O=C(O)/C(=C/c1ccc(F)c(-c2ccccc2Cl)c1)NC(=O)c1ccccc1 [Compound 8],> 5.00
2,Cc1ccc(COc2ccc(/C=C(\NC(=O)c3ccccc3)C(=O)O)cc2)cc1 [Compound 3],4.52 to 4.96
3,O=C(O)/C(=C/c1cnc(-c2ccccc2Cl)[nH]1)NC(=O)c1ccccc1 [Compound 12],< 4.52
4,O=C(O)/C(=C/c1ccc(-c2cc3ccccc3s2)o1)NC(=O)c1ccccc1 [Compound 5],4.52 to 4.96

# More lines, now with the values ahead:
row,pIC50,SMILES
1,> 5.00,O=C(O)/C(=C/c1ccc(Oc2ccccc2Br)cc1)NC(=O)c1ccccc1 [Compound 13]
2,> 5.00,O=C(O)/C(=C/c1ncc(-c2ccccc2)o1)NC(=O)c1ccccc1 [Compound 10]
3,> 5.00,O=C(O)/C(=C/c1cccc(Oc2ccccc2Cl)c1)NC(=O)c1ccccc1 [Compound 1]
4,> 5.00,O=C(O)/C(=C/c1csc(-c2ccccc2Cl)n1)NC(=O)c1ccccc1 [Compound 9]
5,4.52 to 4.96,O=C(O)/C(=C/c1ccc(Nc2ccccc2Cl)cc1)NC(=O)c1ccccc1 [Compound 6]
6,< 4.52,O=C(O)/C(=C/c1cccc(-c2cccnc2)c1)NC(=O)c1ccccc1 [Compound 11]
7,< 4.52,CCS(=O)(=O)c1ccc(-c2ccc(/C=C(\NC(=O)c3ccccc3)C(=O)O)o2)cc1 [Compound 7]
8,> 5.00,O=C(O)/C(=C/c1ccc(-c2ccc3c(c2)OCO3)o1)NC(=O)c1ccccc1 [Compound 4]
